Read-outs that look alike come from different tables or passages of the source.
Columns and labels:
Pyricularia oryzae [1] = experiment: microbe, parasite or virus in culture; assay type: cell-based; conditions: 120 h, read-out: % efficacy
Pyricularia oryzae [2] = experiment: microbe, parasite or virus in culture; assay type: cell-based; conditions: 72 h, read-out: % efficacy
Pyricularia oryzae [3] = experiment: microbe, parasite or virus in culture; assay type: cell-based; conditions: 96 h, read-out: % efficacy
Botrytis cinerea = Botrytis cinerea test (in vitro)/microtiter plates, Example 5; assay type: cell-based; conditions: 72 h, single active compound, spore suspension in PDB, 3 days incubation, ipconazole as commercially available formulation, read-out: % efficacy
Rhizoctonia solani = Rhizoctonia solani test (in vitro)/microtiter plates, Example 2; conditions: 96 h, read-out: % efficacy
Coriolus versicolor = experiment: microbe, parasite or virus in culture; conditions: Trametes versicolor, 72 h, read-out: % efficacy
Pyricularia oryzae [4] = experiment: microbe, parasite or virus in culture; assay type: cell-based; conditions: 72 h, read-out: % efficacy; remark: listed apart in the source

OC(Cn1cncn1)(c1ccc(F)cc1)c1ccccc1F (centres unmarked) [flutriafol]
Emax at 0.3 ppm (Pyricularia oryzae [1]): 6%

COCC(=O)N(c1c(C)cccc1C)[C@H](C)C(=O)OC [mefenoxam, metalaxyl-M]
Emax at 0.3 ppm (Pyricularia oryzae [2]): 16%

CCCCC(C#N)(Cn1cncn1)c1ccc(Cl)cc1 (centres unmarked) [myclobutanil]
Emax at 0.1 ppm (Pyricularia oryzae [3]): 4%

CC(C)C1CCC(Cc2ccc(Cl)cc2)C1(O)Cn1cncn1 (centres unmarked) [ipconazole]
Emax at 0.003 ppm (Botrytis cinerea): 3%

O=C(Nc1ccccc1-c1ccc(Cl)cc1)c1cccnc1Cl [boscalid]
Emax at 0.1 ppm (Rhizoctonia solani): 67%

CC1COC(Cn2cncn2)(c2ccc(Oc3ccc(Cl)cc3)cc2Cl)O1 (centres unmarked) [difenoconazole]
Emax at 0.03 ppm (Coriolus versicolor): 93%

C=CCNC(=O)c1c([Si](C)(C)C)sc(C)c1C [silthiofam]
Emax at 0.1 ppm (Pyricularia oryzae [4]): 1%

CO/N=C(/C1=NOCCO1)c1ccccc1Oc1ncnc(Oc2ccccc2Cl)c1F [fluoxastrobin]
Emax at 0.1 ppm (Rhizoctonia solani): 64% | Emax at 0.1 ppm (Pyricularia oryzae [3]): 82% | Emax at 0.3 ppm (Pyricularia oryzae [2]): 84% | Emax at 0.1 ppm (Pyricularia oryzae [4]): 80% | Emax at 0.3 ppm (Pyricularia oryzae [1]): 86% | Emax at 0.003 ppm (Botrytis cinerea): 9% | Emax at 0.03 ppm (Coriolus versicolor): 24%

— US20180014541A1, “FUNGICIDAL ACTIVE COMPOUND COMBINATIONS” (ARYSTA LIFESCIENCE CORPORATION, priority 2004, published 2018)
